# The source made the active and inactive calls. The rule behind the calls is not given here.
# Molecular target: alkaline phosphatase, placental type (human)
# Experiment: inhibitors of placental alkaline phosphatase – biochemical, human PLAP isozyme, set 2, selectivity assay for mouse IAP inhibitor project, SAR follow-up (AID 588641)
# Conditions: purified human placental alkaline phosphatase, enzyme activity
row,IC50,Compound
1,> 100 µM (inactive),N#Cc1cccc(CNC(=O)CCNS(=O)(=O)c2ccc3[nH]c(=O)oc3c2)c1
2,> 100 µM (inactive),N#Cc1ccc(NS(=O)(=O)c2ccc3[nH]c(=O)oc3c2)cc1
3,> 100 µM (inactive),O=C(CCNS(=O)(=O)c1ccc2[nH]c(=O)oc2c1)NCc1ccc2c(c1)OCO2
4,> 100 µM (inactive),CSc1cccc(NC(=O)CCNS(=O)(=O)c2ccc3c(c2)oc(=O)n3C)c1
5,> 100 µM (inactive),O=C(CCNS(=O)(=O)c1ccc2[nH]c(=O)oc2c1)NCc1ccc(Cl)cc1
6,> 100 µM (inactive),O=C(CCNS(=O)(=O)c1ccc2[nH]c(=O)oc2c1)NCc1cccc(C(F)(F)F)c1
7,> 100 µM (inactive),O=C(CCS(=O)(=O)Nc1ccc2[nH]c(=O)oc2c1)NCc1ccccc1Cl
8,> 100 µM (inactive),O=C(CCCNS(=O)(=O)c1ccc2[nH]c(=O)oc2c1)NCCc1ccc(O)cc1
9,> 100 µM (inactive),COc1cccc(CNS(=O)(=O)c2ccc3[nH]c(=O)oc3c2)c1
10,> 100 µM (inactive),O=C(CCS(=O)(=O)Nc1ccc2[nH]c(=O)oc2c1)NCc1cccc(Cl)c1
11,> 100 µM (inactive),N#Cc1cccc(NC(=O)CNS(=O)(=O)c2ccc3[nH]c(=O)oc3c2)c1
12,> 100 µM (inactive),COc1ccc(CNC(=O)CNS(=O)(=O)c2ccc3[nH]c(=O)oc3c2)cc1
13,> 100 µM (inactive),COc1cccc(CNC(=O)CNS(=O)(=O)c2ccc3[nH]c(=O)oc3c2)c1
14,> 100 µM (inactive),O=C(CCNS(=O)(=O)c1ccc2[nH]c(=O)oc2c1)NCc1ccc(F)cc1
15,> 100 µM (inactive),Cc1cc(NC(=O)CCNS(=O)(=O)c2ccc3[nH]c(=O)oc3c2)ccc1Br
16,> 100 µM (inactive),COc1ccc(NC(=O)CCNS(=O)(=O)c2ccc3[nH]c(=O)oc3c2)cc1OC

row,IC50,Compound
1,> 100 µM (inactive),COc1ccc(NC(=O)CCCNS(=O)(=O)c2ccc3[nH]c(=O)oc3c2)cc1OC
2,> 100 µM (inactive),O=C(CCNS(=O)(=O)c1ccc2[nH]c(=O)oc2c1)NCCc1ccc2c(c1)OCO2
3,> 100 µM (inactive),Cc1ccc(C)c(NC(=O)CCNS(=O)(=O)c2ccc3[nH]c(=O)oc3c2)c1
4,> 100 µM (inactive),CC(C)Oc1ccc(CNC(=O)C2CCCN(S(=O)(=O)c3ccc4[nH]c(=O)oc4c3)C2)cc1 (centres undefined)
5,> 100 µM (inactive),Cc1ccc(C)c(NC(=O)CNS(=O)(=O)c2ccc3[nH]c(=O)oc3c2)c1
6,> 100 µM (inactive),O=C(CCCNS(=O)(=O)c1ccc2[nH]c(=O)oc2c1)NCc1cccc(F)c1
7,> 100 µM (inactive),O=C(CCNS(=O)(=O)c1ccc2[nH]c(=O)oc2c1)NCc1ccc(O)c(O)c1
8,> 100 µM (inactive),O=C(CCS(=O)(=O)Nc1ccc2[nH]c(=O)oc2c1)NCc1cccc(F)c1
9,> 100 µM (inactive),O=C(CCNS(=O)(=O)c1ccc2[nH]c(=O)oc2c1)Nc1ccc2c(c1)OCO2
10,> 100 µM (inactive),O=C(CCNS(=O)(=O)c1ccc2[nH]c(=O)oc2c1)NCc1ccccc1
11,> 100 µM (inactive),Cc1ccccc1CNC(=O)CCCNS(=O)(=O)c1ccc2[nH]c(=O)oc2c1
12,> 100 µM (inactive),COc1ccc(CCNC(=O)CCCNS(=O)(=O)c2ccc3[nH]c(=O)oc3c2)cc1
13,> 100 µM (inactive),Cc1ccc(CNC(=O)CCNS(=O)(=O)c2ccc3[nH]c(=O)oc3c2)cc1
14,> 100 µM (inactive),O=c1[nH]c2ccc(S(=O)(=O)NCCc3ccc4c(c3)OCO4)cc2o1
15,> 100 µM (inactive),COc1ccc(NC(=O)CCCNS(=O)(=O)c2ccc3[nH]c(=O)oc3c2)c(OC)c1
16,> 100 µM (inactive),COc1ccc(NS(=O)(=O)c2ccc3[nH]c(=O)oc3c2)cc1OC

# Further lines, the compound ahead of its results:
row,Compound,IC50
1,COc1ccc(C(=O)N/N=C/c2c(F)cccc2Cl)cc1OC,> 100 µM (inactive)
2,O=C(N/N=C/c1ccc(F)c(Br)c1)c1cc(O)c(O)c(O)c1,> 100 µM (inactive)
3,O=C(N/N=C/c1ccc(F)cc1F)c1ccc(O)cc1,> 100 µM (inactive)
4,CC(=NNC(=O)c1ccccc1OCCOc1ccccc1)c1ccccc1F,> 100 µM (inactive)
5,COc1ccc(/C=N\NC(=O)c2cc(O)c(O)c(O)c2)cc1CN1CCN(c2ccc(F)cc2)CC1,> 100 µM (inactive)
6,CCc1ccc(NC(=O)CCNS(=O)(=O)c2ccc3c(c2)oc(=O)n3C)cc1,> 100 µM (inactive)
7,O=C(N/N=C/c1c(F)cccc1F)c1ccc(O)cc1,> 100 µM (inactive)
8,COc1ccc(/C=N/NC(=O)c2cc(O)c(O)c(O)c2)cc1OC,> 100 µM (inactive)
9,Cc1ccc(C)c(CNC(=O)C2CCCN(S(=O)(=O)c3ccc4[nH]c(=O)oc4c3)C2)c1 (centres undefined),> 100 µM (inactive)
10,O=C(N/N=C/c1ccccc1Cl)c1cc(O)c(O)c(O)c1,> 100 µM (inactive)
11,COc1cc(C(=O)N/N=C/c2c(F)cccc2Cl)cc(OC)c1OC,> 100 µM (inactive)
12,O=C(N/N=C/c1c(F)cccc1Cl)c1ccc(O)cc1O,> 100 µM (inactive)
13,O=C(N/N=C/c1ccccc1F)c1ccc(O)cc1O,> 100 µM (inactive)
14,O=C(N/N=C/c1c(F)cccc1Cl)c1cc(O)c(O)c(O)c1,> 100 µM (inactive)
15,O=C(NN=Cc1ccccc1F)c1ccc(O)cc1,> 100 µM (inactive)
16,O=C(N/N=C/c1ccccc1C(F)(F)F)c1cc(O)c(O)c(O)c1,> 100 µM (inactive)
17,COc1ccc(OC)c(NC(=O)C2CCCN(S(=O)(=O)c3ccc4c(c3)oc(=O)n4C)C2)c1 (centres undefined),> 100 µM (inactive)
18,CCOc1cc(C(=O)N/N=C/c2ccccc2F)cc(OCC)c1OCC,> 100 µM (inactive)
19,O=C(N/N=C/c1ccc(Cl)c(Cl)c1)c1cc(O)c(O)c(O)c1,> 100 µM (inactive)
20,O=C(N/N=C/c1cc(Br)ccc1F)c1ccc(O)cc1,> 100 µM (inactive)
21,COc1ccc(NC(=O)CCNS(=O)(=O)c2ccc3c(c2)CCC3)cc1OC,> 100 µM (inactive)
22,CC(C)c1ccc(/C=N/NC(=O)c2cc(O)c(O)c(O)c2)cc1,> 100 µM (inactive)

# From PubChem BioAssay AID588641 (Sanford-Burnham Center for Chemical Genomics, 2011)
